Data from the supplement of paper PMC12463676, “Small-molecule dissolution of stress granules by redox modulation benefits ALS models” (Nature Chemical Biology, 2025).

Assays:
lipoamide = compound: NC(=O)CCCCC1CCSS1 [lipoamide]; assay: thermal stability z-score vs DMSO; higher = more thermally stabilized by treatment; conditions: HeLa, lipoamide concentration 100 µM
Method: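 Cellular thermal proteome profiling in HeLa cells. Cells were treated with 100 µM lipoamide for 1 h, with or without 1 mM arsenate for a further 1 h, then heated to ten temperatures (37-66.3 °C), and soluble protein was quantified by TMT mass spectrometry relative to 0.1% DMSO controls. The thermal stability score (sum of log2 fold changes minus the abundance score) was transformed to a z-score; mean of n = 3 experiments.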

potassium arsenate = compound: O=[As]([O-])(O)O.[K+] [potassium arsenate]; assay: as above; conditions: HeLa; arsenate concentration 1 mM
Method: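 Cellular thermal proteome profiling in HeLa cells treated with 1 mM arsenate for 1 h (DMSO pretreatment), heated to ten temperatures (37-66.3 °C). Soluble protein was quantified by TMT mass spectrometry relative to DMSO controls; the thermal stability score was transformed to a z-score; mean of n = 3 experiments.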

[1] = arsenate co-treatment: 1 mM arsenate 1 h
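Also: each temperature applied for 3 min, abundance score taken as mean log2 fold change at the two lowest temperatures, z-score obtained by mean subtraction and division by SD.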

Sequence of UniProt Q7Z5G4 (Q7Z5G4 whole entry): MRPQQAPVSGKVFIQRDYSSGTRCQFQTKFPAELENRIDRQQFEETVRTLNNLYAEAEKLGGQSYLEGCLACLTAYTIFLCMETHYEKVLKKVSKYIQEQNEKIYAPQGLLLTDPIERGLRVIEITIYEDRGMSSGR
Sequence of UniProt Q9BSL1 (Q9BSL1 whole entry): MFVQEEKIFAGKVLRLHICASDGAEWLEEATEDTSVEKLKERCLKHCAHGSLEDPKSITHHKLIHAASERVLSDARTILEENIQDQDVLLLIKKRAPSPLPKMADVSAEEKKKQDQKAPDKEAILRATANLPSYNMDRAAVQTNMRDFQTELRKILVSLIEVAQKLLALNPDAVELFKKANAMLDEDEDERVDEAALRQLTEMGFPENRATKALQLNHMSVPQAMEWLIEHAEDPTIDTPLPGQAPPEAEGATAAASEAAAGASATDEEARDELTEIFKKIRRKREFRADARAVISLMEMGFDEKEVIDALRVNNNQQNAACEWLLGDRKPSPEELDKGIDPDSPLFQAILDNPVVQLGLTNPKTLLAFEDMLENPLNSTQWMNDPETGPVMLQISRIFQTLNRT
Sequence of UniProt P43121 (P43121 whole entry): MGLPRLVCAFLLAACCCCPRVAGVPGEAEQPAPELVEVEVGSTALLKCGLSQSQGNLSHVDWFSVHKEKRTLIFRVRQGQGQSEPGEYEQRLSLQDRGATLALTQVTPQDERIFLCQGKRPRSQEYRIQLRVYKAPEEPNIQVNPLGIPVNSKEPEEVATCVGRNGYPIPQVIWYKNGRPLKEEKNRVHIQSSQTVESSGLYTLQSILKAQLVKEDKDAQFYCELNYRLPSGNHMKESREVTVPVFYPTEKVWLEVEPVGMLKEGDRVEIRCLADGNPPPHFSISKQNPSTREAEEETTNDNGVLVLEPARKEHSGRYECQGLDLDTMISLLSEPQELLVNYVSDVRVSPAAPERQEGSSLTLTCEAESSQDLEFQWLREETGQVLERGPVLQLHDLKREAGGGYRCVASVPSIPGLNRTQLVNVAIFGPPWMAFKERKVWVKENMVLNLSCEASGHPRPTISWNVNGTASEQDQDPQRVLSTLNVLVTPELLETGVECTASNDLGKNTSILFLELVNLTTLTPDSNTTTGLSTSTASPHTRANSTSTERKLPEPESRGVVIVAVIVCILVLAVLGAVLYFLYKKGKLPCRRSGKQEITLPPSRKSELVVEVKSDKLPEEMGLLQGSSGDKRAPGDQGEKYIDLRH
Sequence of UniProt Q15020 (Q15020 whole entry): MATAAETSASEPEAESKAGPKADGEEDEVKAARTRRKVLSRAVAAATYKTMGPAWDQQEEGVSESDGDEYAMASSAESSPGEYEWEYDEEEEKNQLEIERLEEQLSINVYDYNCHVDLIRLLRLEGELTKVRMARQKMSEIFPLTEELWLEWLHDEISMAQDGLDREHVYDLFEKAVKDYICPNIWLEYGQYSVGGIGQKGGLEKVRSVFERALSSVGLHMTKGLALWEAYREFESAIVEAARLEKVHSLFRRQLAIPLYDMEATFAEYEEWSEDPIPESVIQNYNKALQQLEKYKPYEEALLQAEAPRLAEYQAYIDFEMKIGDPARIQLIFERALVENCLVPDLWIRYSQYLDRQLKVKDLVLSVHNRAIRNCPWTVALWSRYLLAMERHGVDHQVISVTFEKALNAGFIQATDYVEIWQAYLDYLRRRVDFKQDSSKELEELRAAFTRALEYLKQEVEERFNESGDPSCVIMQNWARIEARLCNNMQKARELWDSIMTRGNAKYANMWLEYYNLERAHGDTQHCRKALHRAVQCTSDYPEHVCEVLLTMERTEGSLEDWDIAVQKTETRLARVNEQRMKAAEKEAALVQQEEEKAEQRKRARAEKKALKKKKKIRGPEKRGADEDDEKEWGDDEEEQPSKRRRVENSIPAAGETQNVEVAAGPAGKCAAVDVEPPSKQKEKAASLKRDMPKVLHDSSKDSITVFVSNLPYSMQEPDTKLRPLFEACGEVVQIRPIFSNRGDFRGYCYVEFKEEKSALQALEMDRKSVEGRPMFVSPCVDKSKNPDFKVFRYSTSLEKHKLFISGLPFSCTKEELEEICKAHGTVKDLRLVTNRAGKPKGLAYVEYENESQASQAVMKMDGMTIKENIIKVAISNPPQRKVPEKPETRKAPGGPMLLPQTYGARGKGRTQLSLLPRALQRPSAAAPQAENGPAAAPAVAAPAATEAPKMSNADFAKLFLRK
Sequence of UniProt Q15526 (Q15526 whole entry): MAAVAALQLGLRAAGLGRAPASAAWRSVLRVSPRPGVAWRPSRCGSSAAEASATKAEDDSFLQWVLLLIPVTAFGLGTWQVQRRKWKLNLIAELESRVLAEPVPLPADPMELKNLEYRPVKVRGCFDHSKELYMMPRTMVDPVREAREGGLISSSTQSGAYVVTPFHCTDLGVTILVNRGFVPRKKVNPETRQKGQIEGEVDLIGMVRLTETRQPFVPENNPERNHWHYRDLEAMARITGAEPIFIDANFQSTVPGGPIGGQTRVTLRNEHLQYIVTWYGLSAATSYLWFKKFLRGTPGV
Sequence of UniProt Q9Y3C8 (Q9Y3C8 whole entry): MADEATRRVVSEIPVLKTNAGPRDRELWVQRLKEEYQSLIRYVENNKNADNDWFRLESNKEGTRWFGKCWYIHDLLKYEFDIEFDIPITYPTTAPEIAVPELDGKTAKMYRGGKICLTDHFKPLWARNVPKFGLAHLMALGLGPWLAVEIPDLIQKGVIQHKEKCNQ
Sequence of UniProt Q9BYC5 (Q9BYC5 whole entry): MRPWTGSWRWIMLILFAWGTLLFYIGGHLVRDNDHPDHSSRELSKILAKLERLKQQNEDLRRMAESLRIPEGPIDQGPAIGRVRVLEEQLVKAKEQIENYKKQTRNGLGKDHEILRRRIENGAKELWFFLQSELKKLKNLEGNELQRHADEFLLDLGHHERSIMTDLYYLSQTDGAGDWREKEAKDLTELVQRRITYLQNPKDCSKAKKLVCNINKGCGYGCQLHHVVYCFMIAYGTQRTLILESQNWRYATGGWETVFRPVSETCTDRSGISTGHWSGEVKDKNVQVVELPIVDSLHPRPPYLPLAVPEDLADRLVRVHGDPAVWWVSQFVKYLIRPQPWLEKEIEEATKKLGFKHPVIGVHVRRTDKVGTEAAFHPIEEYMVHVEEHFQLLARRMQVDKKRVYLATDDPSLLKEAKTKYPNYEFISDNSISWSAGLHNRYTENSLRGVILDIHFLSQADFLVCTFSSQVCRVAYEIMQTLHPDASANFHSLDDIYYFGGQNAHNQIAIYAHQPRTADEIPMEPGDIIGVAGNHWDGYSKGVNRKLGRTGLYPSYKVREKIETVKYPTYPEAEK
Sequence of UniProt Q9P265 (Q9P265 whole entry): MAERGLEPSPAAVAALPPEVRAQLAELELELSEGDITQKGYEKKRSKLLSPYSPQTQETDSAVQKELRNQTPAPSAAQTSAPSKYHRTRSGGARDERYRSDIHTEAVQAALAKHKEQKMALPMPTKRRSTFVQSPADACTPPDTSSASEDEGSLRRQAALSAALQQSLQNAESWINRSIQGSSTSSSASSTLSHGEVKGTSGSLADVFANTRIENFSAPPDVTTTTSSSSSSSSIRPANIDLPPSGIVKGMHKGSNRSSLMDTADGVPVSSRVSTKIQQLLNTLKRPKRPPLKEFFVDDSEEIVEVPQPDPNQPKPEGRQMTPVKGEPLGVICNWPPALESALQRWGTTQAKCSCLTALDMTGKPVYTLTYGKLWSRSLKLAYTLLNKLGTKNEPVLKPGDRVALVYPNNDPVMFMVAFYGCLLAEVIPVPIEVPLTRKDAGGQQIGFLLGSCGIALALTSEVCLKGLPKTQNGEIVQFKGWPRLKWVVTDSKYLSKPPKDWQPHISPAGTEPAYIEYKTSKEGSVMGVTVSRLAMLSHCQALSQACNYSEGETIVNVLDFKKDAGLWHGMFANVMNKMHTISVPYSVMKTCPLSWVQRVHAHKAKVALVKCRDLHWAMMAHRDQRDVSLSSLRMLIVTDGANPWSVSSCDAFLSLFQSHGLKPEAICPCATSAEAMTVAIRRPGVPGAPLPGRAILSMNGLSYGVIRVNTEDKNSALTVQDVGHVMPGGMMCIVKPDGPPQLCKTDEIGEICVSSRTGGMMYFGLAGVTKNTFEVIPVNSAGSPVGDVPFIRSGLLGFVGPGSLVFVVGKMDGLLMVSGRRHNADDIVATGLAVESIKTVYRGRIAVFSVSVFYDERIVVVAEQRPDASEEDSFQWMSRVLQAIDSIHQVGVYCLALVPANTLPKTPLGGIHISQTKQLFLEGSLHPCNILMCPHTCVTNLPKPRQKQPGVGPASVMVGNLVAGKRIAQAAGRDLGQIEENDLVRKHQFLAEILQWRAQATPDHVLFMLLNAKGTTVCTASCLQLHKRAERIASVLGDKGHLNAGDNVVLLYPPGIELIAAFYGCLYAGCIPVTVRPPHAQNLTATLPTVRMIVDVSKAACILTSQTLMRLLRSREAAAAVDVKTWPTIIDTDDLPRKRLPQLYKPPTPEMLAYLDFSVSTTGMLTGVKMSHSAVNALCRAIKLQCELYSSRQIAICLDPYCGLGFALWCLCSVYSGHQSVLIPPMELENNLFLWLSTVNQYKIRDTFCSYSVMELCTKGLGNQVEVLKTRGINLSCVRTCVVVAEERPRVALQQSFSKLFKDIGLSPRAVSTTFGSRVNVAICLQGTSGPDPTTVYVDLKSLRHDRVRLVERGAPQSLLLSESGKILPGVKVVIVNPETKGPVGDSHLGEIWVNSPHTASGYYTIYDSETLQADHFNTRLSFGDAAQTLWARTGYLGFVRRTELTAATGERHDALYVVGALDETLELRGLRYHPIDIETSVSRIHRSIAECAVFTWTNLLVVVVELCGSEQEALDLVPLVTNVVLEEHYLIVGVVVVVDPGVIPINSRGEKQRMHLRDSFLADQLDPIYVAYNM
Sequence of UniProt Q99942 (Q99942 whole entry): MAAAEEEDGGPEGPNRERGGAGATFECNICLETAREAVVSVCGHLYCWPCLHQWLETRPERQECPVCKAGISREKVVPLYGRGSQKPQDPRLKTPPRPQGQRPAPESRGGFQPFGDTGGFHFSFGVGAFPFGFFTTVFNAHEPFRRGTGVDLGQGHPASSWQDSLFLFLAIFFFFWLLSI

| Target | thermal stability z-score (lipoamide; [1]) | thermal stability z-score (lipoamide; arsenate co-treatment: none) | thermal stability z-score (potassium arsenate) |
| --- | --- | --- | --- |
| LRRC8D (UniProt Q7L1W4) | 0.38 | -0.0451 | -0.198 |
| GOLGA7 (UniProt Q7Z5G4) | -1.29 | -0.742 | -1.71 |
| ZMIZ2 (UniProt Q8NF64) | -0.177 | -0.321 | -0.482 |
| PDDC1 (UniProt Q8NB37) | 0.604 | -0.174 | -2.18 |
| UFC1 (UniProt Q9Y3C8) | 0.984 | 0.773 | 0.281 |
| PDCD11 (UniProt Q14690) | -0.0446 | -0.334 | -0.125 |
| SLC38A7 (UniProt Q9NVC3) | -0.543 | -0.964 | -0.442 |
| DDT (UniProt P30046) | -0.198 | 0.134 | 0.0872 |
| NUP210 (UniProt Q8TEM1) | -0.954 | -1.03 | 0.685 |
| DCAF11 (UniProt Q8TEB1) | 0.101 | 0.343 | -0.996 |
| LANCL1 (UniProt O43813) | 0.232 | 0.164 | 0.0783 |
| BICD1 (UniProt Q96G01) | -1.17 | -1.22 | -1.74 |
| RNF5 (UniProt Q99942) | -0.0839 | 0.142 | -0.145 |
| MAF1 (UniProt Q9H063) | -0.0772 | -0.00412 | -0.373 |
| PUS3 (UniProt Q9BZE2) | 0.378 | -0.095 | 2.26 |
| PAF1 (UniProt Q8N7H5) | 0.0739 | -0.631 | -0.714 |
| SPATA20 (UniProt Q8TB22) | 0.172 | 0.136 | -0.121 |
| PLIN2 (UniProt Q99541) | 0.587 | 0.338 | 2.1 |
| PLPP3 (UniProt O14495) | 0.394 | 0.448 | 0.384 |
| TIMM44 (UniProt O43615) | 0.147 | 0.291 | -0.65 |
| DENND5B (UniProt Q6ZUT9) | 0.0786 | 0.0385 | 0.148 |
| MGST3 (UniProt O14880) | 0.65 | 0.431 | 2.22 |
| PPIE (UniProt Q9UNP9) | 0.246 | 0.0366 | 0.128 |
| GOPC (UniProt Q9HD26) | -0.587 | 0.0054 | 0.591 |

| Target | thermal stability z-score (lipoamide; [1]) | thermal stability z-score (lipoamide; arsenate co-treatment: none) | thermal stability z-score (potassium arsenate) |
| --- | --- | --- | --- |
| SEC11A (UniProt P67812) | -2.78 | -1.58 | 0.475 |
| LSM3 (UniProt P62310) | 0.229 | -0.327 | -0.624 |
| RHOBTB3 (UniProt O94955) | 0.00346 | 0.217 | -0.0881 |
| AGPS (UniProt O00116) | -1.96 | -1.23 | -0.854 |
| TRIP10 (UniProt Q15642) | 0.15 | 0.0699 | -0.0864 |
| SART3 (UniProt Q15020) | -0.326 | 0.203 | -1.04 |
| RPA1 (UniProt P27694) | -0.6 | -0.317 | 0.0213 |
| DIP2B (UniProt Q9P265) | 0.206 | 0.147 | -0.222 |
| C9ORF64 (UniProt Q5T6V5) | -0.191 | 0.121 | -0.254 |
| YIPF5 (UniProt Q969M3) | -0.255 | -0.344 | -0.18 |
| GPN2 (UniProt Q9H9Y4) | 0.0332 | 0.0213 | -0.222 |
| PDK2 (UniProt Q15119) | 0.292 | 0.0166 | 0.0862 |
| ANLN (UniProt Q9NQW6) | 0.066 | 0.0787 | -1.45 |
| DCTN3 (UniProt O75935) | 0.0144 | 0.489 | 0.72 |
| LMO7 (UniProt Q8WWI1) | 1.17 | 0.27 | -1.54 |
| SLC9A3R2 (UniProt Q15599) | -0.0651 | 0.332 | -0.923 |
| CUX1 | 0.393 | 0.589 | 0.272 |
| VPS13C (UniProt Q709C8) | 0.038 | -0.033 | -0.213 |
| NCOA3 (UniProt Q9Y6Q9) | -0.0145 | 0.0505 | -0.26 |
| UBAC1 (UniProt Q9BSL1) | 0.447 | -0.0576 | 0.576 |
| MRPL20 (UniProt Q9BYC9) | 0.411 | 0.239 | -0.00694 |
| SURF1 (UniProt Q15526) | -1.27 | -0.521 | 0.165 |
| DPH1 (UniProt Q9BZG8) | -0.233 | -0.119 | -1.29 |
| GPAA1 (UniProt O43292) | -1.09 | -1.12 | 0.145 |

| Target | thermal stability z-score (lipoamide; [1]) | thermal stability z-score (lipoamide; arsenate co-treatment: none) | thermal stability z-score (potassium arsenate) |
| --- | --- | --- | --- |
| NOP10 (UniProt Q9NPE3) | 0.405 | -0.0767 | 0.522 |
| HMGB2 (UniProt P26583) | 0.55 | 0.687 | 0.175 |
| UQCC1 (UniProt Q9NVA1) | 0.493 | 0.855 | 1.5 |
| FIP1L1 (UniProt Q6UN15) | 0.903 | 0.265 | -1.73 |
| ZC3H7A (UniProt Q8IWR0) | -0.124 | -0.0131 | -0.613 |
| OTUD5 (UniProt Q96G74) | -0.721 | 0.294 | 1.72 |
| YIPF3 (UniProt Q9GZM5) | -0.157 | 0.0301 | -0.0851 |
| FOXK2 (UniProt Q01167) | 0.0506 | -0.306 | 0.133 |
| VPS26A (UniProt O75436) | 0.178 | -0.395 | 0.335 |
| DNAJC21 (UniProt Q5F1R6) | -0.615 | -0.205 | 0.00418 |
| FUT8 (UniProt Q9BYC5) | -0.561 | -0.0456 | 0.521 |
| GLRX3 (UniProt O76003) | 0.153 | 0.465 | 0.88 |
| NLRX1 (UniProt Q86UT6) | 0.128 | 0.211 | -0.0617 |
| COPS7A (UniProt Q9UBW8) | 0.334 | 0.0778 | -0.0728 |
| ERBB2IP (UniProt Q96RT1) | 0.354 | -0.307 | -1.94 |
| PGK1 (UniProt P00558) | 0.239 | 0.256 | -0.469 |
| MRM3 (UniProt Q9HC36) | -0.128 | -0.165 | -0.218 |
| TYSND1 (UniProt Q2T9J0) | -0.12 | -0.377 | -0.646 |
| CLTCL1 (UniProt P53675) | 0.147 | 0.15 | 0.858 |
| MCAM (UniProt P43121) | 0.197 | -0.281 | 0.512 |
| C1GALT1C1 (UniProt Q96EU7) | -0.776 | -0.734 | 0.1 |
| TULP3 (UniProt O75386) | -0.00846 | 0.00888 | -0.00993 |
| ATL3 (UniProt Q6DD88) | -0.399 | -0.0961 | 0.731 |
